Test results published in patent publication US20240269116A1, “USE OF MMP INHIBITORS FOR TREATING ACUTE RESPIRATORY DISTRESS SYNDROME” (Foresee Pharmaceuticals Co., Ltd., priority 2021, published 2024).
Entries after “also recorded” stand apart in the source; their conditions may differ.

Tested on: LPS-induced acute lung injury (ALI)
Assay: LPS-induced mice acute lung injury (ALI) model, BAL fluid cell counts and lung histology at 24 hours
Format: in vivo, Male C57BL/6 mice
Protocol: The compound of formula (F-I) was evaluated for the therapeutic efficacy in the LPS-induced mice ALI model. In this study, animals were anesthetized with 2.5% isoflurane inhalation. LPS was used to create ALI at the dose of 3 mg/kg in 50 μl via a direct intratracheal injection. For sham animals, an equal volume of saline solution was directly injected into the trachea. After LPS injection, the test article compound of formula (F-I) was dosed at different single oral doses and different therapeutic time points. Male C57BL/6 mice (n=100) were used in this study. DEX was used as positive control. Animals were randomly divided into 10 groups and dose regimens are described in Table 1. At 24 hours after injection, all animals were euthanized and processed for bronchoalveolar lavage (BAL) fluid collection from bilateral lungs and formalin-fixation of lung tissue pathology studies. [table]

[1] = lung histology at 24 hours of ALI, treatment at 4 or 8 hours of ALI, all dosages, vs model
[2] = single oral dose at 4 or 8 hours of ALI (F-I 1, 3, 10 mg/kg; DEX 3 mg/kg), BAL at 24 hours, vs Vehicle group

Cc1cccc(COc2ccc(Sc3ccoc3C3NC(=O)NC3=O)cc2)c1 (stereo not drawn) [compound of formula (F-I)]
therapeutic efficacy at lower doses (1 mg/kg via oral gavage at 4 or 8 hours of ALI): significant therapeutic efficacy
overall efficacy at 10 mg/kg (10 mg/kg at 4 hours and 8 hours of ALI, conclusion): better
dose dependence of lung tissue protection (1, 3, 10 mg/kg, dosing at 4 or 8 hours of ALI, histology): no clear dose-dependent lung tissue protection
overall therapeutic efficacy, dosing at 8 hours vs 4 hours of ALI (conclusion, dosing at 8 hours compared with 4 hours of ALI): slightly better
efficacy in BAL fluid analysis, comparison of doses (dose of 10 mg/kg compared with 1 and 3 mg/kg): best efficacy
alveolar damages (lung histology) [1]: reduction
bronchial and arteriole damages (lung histology) [1]: reduction
total lung injury (lung histology) [1]: reduction
neutrophils in BAL fluid [2]: clear trend of dose-dependent reduction; also recorded: reduced
total inflammatory cells in BAL fluid [2]: clear trend of dose-dependent reduction; also recorded: reduced
effect on BAL fluid cells, treatment at 8 hours vs 4 hours of ALI (treatment at 8 hours of ALI compared to 4 hours of ALI): better effect than that at 4 hours of ALI
lung histology efficacy, treatment at 8 hours vs 4 hours of ALI (treatment at 8 hours of ALI compared to 4 hours of ALI, histology at 24 hours): better efficacy
